“Also recorded” adds a separate entry of the source. Like-named read-outs stand apart in the source and are kept apart here.
Assays:
[1] = cited from earlier work
LRRK2[A2016T] = LRRK2[A2016T] (Homo sapiens, UniProt Q5S007, A2016T); assay: LRRK2 enzymatic assay, A2016T mutant; conditions: biochemical, Fig. 1
TSSK1 = target: T1, TSSK1 (Homo sapiens, UniProt Q9BXA7); assay: Radioactivity-based enzymatic kinase panel; conditions: read-out: Inhibition of kinase activity
T1 sequence (Q9BXA7 1-367): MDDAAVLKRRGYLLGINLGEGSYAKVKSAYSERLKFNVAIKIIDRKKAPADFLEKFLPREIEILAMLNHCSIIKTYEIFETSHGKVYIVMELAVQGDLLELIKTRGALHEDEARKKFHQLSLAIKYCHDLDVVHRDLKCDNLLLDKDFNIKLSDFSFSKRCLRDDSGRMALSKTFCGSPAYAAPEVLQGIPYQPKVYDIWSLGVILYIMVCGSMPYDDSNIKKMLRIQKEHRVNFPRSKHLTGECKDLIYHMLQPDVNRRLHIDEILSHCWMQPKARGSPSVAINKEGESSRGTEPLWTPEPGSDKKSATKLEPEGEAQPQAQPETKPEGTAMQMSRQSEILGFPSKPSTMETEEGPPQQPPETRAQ

GFP-LRRK2[A2016T] = GFP-LRRK2[A2016T] (Homo sapiens, UniProt Q5S007, A2016T); type: cell-based; conditions: HEK293, LRRK2[A2016T], 90 min
CHK2 = CHK2 (Homo sapiens, UniProt O96017); assay: Radioactivity-based enzymatic kinase panel; conditions: read-out: Inhibition of kinase activity
NUAK1 = target: T2, NUAK1 (Homo sapiens, UniProt O60285); assay: Radioactivity-based enzymatic kinase panel; conditions: read-out: Inhibition of kinase activity
T2 sequence (O60285 1-661): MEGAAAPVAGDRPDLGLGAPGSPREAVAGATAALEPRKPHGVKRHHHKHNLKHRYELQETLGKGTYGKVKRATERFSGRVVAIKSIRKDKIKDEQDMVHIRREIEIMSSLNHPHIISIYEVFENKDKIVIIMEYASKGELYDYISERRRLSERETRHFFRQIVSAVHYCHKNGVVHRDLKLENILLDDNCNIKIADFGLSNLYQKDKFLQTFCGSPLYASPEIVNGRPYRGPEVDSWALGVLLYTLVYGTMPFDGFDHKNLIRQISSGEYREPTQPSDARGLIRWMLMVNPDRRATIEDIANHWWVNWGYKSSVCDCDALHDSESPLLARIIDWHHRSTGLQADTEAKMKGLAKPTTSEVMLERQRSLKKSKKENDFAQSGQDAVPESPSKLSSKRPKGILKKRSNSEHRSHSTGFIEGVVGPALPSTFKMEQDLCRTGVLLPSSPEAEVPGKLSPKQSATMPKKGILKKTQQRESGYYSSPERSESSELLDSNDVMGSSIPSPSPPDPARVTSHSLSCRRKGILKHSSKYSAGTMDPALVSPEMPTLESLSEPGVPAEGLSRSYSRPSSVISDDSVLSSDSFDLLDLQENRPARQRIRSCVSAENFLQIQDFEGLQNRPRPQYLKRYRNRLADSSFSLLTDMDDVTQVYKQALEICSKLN

PHKã1(PBK) = PHKã1(PBK) (Homo sapiens, UniProt Q16816); assay: Radioactivity-based enzymatic kinase panel; conditions: read-out: Inhibition of kinase activity
CAMKKβ = CAMKKβ (Homo sapiens, UniProt Q96RR4); assay: Radioactivity-based enzymatic kinase panel; conditions: read-out: Inhibition of kinase activity
endogenous LRRK2 = endogenous LRRK2 (Mus musculus, UniProt Q5S006); type: in vivo
endogenous LRRK2, sequence (Q5S006 whole entry): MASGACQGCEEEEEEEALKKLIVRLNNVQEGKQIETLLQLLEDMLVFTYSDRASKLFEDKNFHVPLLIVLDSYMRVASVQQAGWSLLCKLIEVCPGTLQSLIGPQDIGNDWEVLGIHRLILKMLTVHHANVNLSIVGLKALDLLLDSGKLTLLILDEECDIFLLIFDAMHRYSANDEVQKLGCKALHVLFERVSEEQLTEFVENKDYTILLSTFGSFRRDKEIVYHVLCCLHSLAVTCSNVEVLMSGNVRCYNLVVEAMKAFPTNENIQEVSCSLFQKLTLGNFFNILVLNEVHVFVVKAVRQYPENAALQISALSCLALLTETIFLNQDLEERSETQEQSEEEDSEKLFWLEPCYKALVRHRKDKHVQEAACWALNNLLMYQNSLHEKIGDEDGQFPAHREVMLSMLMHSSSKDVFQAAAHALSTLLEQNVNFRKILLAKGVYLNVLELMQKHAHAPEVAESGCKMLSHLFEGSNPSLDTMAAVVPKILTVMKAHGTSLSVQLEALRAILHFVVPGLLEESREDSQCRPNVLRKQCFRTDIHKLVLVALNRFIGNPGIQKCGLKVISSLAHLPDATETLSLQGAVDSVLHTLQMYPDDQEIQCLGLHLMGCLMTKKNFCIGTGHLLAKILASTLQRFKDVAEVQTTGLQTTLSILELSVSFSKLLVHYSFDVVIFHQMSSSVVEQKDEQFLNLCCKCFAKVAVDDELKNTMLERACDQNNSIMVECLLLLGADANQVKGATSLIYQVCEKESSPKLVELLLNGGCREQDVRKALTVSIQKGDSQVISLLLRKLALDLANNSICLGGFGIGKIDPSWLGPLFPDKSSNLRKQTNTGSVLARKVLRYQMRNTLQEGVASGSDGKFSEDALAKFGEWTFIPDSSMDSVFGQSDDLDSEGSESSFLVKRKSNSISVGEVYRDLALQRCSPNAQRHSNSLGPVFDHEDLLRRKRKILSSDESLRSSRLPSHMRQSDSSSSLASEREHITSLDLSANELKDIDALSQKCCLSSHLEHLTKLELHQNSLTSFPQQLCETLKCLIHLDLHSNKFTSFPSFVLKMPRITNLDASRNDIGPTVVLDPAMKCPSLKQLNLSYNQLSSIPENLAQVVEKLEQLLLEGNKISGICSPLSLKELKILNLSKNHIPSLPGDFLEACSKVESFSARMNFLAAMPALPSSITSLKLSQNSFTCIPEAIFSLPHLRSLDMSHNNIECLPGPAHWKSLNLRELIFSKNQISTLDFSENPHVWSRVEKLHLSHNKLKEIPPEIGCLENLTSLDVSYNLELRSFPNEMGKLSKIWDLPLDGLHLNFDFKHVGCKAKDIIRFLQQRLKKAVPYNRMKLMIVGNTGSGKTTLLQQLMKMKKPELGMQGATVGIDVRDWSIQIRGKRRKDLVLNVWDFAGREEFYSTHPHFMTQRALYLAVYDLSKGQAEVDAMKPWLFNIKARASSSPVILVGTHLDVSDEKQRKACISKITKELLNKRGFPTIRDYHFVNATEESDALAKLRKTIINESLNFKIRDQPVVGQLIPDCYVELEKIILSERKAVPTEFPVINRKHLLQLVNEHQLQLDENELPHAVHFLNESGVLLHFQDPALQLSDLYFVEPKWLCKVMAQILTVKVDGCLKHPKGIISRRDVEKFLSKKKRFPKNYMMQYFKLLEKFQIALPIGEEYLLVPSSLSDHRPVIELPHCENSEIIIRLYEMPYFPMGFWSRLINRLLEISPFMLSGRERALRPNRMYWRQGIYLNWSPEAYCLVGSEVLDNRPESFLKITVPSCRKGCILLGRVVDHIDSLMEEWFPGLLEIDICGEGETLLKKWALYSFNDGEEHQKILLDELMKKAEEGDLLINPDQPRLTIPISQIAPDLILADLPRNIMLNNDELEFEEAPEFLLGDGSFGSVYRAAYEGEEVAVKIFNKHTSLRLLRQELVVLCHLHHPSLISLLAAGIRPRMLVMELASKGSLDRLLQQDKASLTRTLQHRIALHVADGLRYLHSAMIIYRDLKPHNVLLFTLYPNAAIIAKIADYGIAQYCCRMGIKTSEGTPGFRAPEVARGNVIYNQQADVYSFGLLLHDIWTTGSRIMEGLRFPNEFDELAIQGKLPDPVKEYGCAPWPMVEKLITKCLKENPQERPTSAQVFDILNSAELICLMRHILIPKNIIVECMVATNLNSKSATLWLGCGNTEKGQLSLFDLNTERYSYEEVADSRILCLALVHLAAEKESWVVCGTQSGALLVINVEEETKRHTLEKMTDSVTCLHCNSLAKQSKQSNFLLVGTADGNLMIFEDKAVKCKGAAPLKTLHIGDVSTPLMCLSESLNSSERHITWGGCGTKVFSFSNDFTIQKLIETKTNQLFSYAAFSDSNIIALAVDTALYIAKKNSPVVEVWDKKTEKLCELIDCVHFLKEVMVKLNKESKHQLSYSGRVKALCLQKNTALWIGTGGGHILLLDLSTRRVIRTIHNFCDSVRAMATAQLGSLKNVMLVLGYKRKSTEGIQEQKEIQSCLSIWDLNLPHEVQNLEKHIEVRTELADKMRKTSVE

LRRK2[A2016T], sequence (Q5S007 whole entry A2016T): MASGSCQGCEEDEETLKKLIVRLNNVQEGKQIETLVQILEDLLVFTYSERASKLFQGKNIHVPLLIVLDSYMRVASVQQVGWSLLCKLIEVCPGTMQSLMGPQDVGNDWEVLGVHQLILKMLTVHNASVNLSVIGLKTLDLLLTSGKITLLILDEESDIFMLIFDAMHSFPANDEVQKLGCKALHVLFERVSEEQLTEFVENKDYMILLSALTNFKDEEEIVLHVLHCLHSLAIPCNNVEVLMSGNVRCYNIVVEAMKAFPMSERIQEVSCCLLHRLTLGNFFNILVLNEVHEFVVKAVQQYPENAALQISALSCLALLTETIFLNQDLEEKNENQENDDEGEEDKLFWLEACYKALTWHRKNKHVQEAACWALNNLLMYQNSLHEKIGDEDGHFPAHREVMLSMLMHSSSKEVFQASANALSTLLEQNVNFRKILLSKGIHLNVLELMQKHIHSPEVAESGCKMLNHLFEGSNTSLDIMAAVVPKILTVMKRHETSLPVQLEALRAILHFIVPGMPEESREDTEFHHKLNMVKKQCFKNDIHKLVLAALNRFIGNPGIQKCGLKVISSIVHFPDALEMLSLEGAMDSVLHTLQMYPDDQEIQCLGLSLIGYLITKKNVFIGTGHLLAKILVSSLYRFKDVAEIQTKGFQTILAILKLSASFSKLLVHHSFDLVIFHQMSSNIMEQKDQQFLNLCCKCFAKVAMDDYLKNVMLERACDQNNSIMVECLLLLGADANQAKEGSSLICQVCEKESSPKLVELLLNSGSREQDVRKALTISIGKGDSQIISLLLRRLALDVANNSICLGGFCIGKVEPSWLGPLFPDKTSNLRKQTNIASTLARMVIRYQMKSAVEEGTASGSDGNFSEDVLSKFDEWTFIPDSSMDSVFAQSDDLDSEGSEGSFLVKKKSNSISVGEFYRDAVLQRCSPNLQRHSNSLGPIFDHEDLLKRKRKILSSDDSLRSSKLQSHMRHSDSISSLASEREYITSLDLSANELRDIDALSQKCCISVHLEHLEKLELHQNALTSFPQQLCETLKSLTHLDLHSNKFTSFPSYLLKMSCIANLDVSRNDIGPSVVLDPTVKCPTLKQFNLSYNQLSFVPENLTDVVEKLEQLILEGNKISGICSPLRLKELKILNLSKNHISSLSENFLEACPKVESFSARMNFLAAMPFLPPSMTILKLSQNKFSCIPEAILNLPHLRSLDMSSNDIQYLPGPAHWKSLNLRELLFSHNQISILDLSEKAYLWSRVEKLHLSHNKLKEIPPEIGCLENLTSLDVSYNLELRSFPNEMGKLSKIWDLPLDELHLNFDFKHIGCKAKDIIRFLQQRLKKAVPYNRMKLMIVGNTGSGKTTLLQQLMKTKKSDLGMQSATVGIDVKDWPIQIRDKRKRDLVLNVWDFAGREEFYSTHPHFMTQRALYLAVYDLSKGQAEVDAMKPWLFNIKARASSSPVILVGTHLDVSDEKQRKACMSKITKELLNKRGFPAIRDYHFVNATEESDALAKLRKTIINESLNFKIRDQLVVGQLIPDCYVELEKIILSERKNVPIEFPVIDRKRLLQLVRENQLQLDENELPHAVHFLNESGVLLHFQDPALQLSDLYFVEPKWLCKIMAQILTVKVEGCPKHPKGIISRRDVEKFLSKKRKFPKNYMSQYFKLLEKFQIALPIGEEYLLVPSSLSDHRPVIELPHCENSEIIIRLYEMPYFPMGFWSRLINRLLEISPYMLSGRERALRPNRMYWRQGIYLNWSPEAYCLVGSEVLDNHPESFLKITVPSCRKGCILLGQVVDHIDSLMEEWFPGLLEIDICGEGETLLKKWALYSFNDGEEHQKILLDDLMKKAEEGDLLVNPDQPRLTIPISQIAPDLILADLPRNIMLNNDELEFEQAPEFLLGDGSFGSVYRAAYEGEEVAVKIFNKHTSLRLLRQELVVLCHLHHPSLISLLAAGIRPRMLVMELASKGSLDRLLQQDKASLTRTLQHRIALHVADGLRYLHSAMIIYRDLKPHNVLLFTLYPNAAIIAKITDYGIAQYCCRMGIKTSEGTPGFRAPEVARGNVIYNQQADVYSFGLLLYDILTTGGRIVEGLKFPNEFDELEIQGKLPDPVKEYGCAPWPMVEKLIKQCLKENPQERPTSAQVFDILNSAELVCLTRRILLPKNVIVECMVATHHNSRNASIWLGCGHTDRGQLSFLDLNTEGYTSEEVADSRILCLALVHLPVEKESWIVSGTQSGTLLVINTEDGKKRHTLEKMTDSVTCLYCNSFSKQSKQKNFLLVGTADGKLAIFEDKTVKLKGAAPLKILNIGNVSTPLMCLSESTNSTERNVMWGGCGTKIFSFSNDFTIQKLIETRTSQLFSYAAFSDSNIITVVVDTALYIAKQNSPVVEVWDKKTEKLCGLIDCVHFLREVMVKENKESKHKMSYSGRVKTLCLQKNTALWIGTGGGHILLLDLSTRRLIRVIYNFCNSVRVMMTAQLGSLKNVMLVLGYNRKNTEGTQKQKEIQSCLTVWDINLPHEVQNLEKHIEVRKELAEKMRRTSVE
GFP-LRRK2[A2016T], sequence (Q5S007 whole entry A2016T): as above

Structure (SMILES) | Exposure in mouse brains [1] | Inhibition of the A2016T mutant (LRRK2[A2016T]) | inhibition at 1 µM (TSSK1) [%] | Concentration inducing dephosphorylation of Ser910 and 935 (GFP-LRRK2[A2016T]) [µM] | inhibition at 1 µM (CHK2) [%] | inhibition at 1 µM (NUAK1) [%] | inhibition at 1 µM (PHKã1(PBK)) [%] | inhibition at 1 µM (CAMKKβ) [%] | Ser910 and Ser935 dephosphorylation of LRRK2 in kidney and spleen (endogenous LRRK2; oral gavage 10 mg/kg, 10 mg/kg) | Ser910 and Ser935 dephosphorylation of LRRK2 in kidney and spleen (endogenous LRRK2; oral gavage 50 mg/kg) | Inhibition of LRRK2 Ser910 or Ser935 phosphorylation in the brain (endogenous LRRK2; oral gavage 10 or 50 mg/kg)
COc1cc(N2CCOCC2)ccc1Nc1ncc(F)c(Nc2ccccc2NS(C)(=O)=O)n1 [CZC-25146] | neither compound is able to achieve good exposure in mouse brains | – | – | – | – | – | – | – | – | – | –
COc1cc(C(=O)N2CCC(N3CCN(C)CC3)CC2)ccc1Nc1ncc2c(n1)N(C)c1ccccc1C(=O)N2C [LRRK2-IN-1] | neither compound is able to achieve good exposure in mouse brains | dramatic resistance | – | – | – | – | – | – | – | – | –
COc1cc(N2CCC(N3CCN(C)CC3)CC2)ccc1Nc1ncc(Cl)c(Nc2ccccc2S(=O)(=O)C(C)C)n1 [TAE684, 5-chloro-N4-(2-(isopropylsulfonyl)phenyl)-N2-(2-methoxy-4-(4-(4-methyl-piperazin-1-yl)piperidin-1-yl)phenyl)pyrimidine-2,4-diamine] | – | relatively insensitive to the A2016T mutation; also recorded: maintains significant inhibition | > 90 | 1 to 3 | > 90 | > 90 | > 90 | > 90 | slightly lower effect; also recorded: substantially inhibits | complete Ser910 and Ser935 dephosphorylation | no inhibition; also recorded: does not inhibit phosphorylation; also recorded: not in brain
